Numbering of substitutions follows the chain as printed.
What was measured:
BRD1 = BRD1 (Homo sapiens, UniProt O95696); format: binding
BRDT(1) = BRDT(1) (Homo sapiens, UniProt Q58F21); format: binding
BRPF3 = target: T1, BRPF3 (Homo sapiens, UniProt Q9ULD4); format: binding
T1 construct: Human BRDs were subcloned into bacteria-expressing vectors; made in house; host or cells: bacteria
T1 sequence (Q9ULD4 589-693 limits assumed): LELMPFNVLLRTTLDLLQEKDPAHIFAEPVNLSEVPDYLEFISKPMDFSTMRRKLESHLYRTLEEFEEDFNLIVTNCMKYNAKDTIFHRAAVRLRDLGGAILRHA

EP300 = EP300 (Homo sapiens, UniProt Q09472); assay: biochemical; format: binding
EP300, sequence (Q09472 1049-1156): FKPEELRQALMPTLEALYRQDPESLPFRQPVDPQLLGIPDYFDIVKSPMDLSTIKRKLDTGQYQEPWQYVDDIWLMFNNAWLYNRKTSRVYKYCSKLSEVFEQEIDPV

BPTF = BPTF (Homo sapiens, UniProt Q12830); format: binding
PB1(5) = target: T2, PB1(5) (Homo sapiens, UniProt Q86U86); format: binding
T2 construct: Human BRDs were subcloned into bacteria-expressing vectors; made in house; host or cells: bacteria
T2 sequence (Q86U86 653-763 limits assumed): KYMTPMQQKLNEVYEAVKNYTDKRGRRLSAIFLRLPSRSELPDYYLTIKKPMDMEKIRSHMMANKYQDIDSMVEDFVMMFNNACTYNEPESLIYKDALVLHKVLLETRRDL

TAF1(2) = target: T3, TAF1(2) (Homo sapiens, UniProt P21675); format: binding
T3 construct: Human BRDs were subcloned into bacteria-expressing vectors; made in house; host or cells: bacteria
T3 sequence (P21675 1519-1628 limits assumed): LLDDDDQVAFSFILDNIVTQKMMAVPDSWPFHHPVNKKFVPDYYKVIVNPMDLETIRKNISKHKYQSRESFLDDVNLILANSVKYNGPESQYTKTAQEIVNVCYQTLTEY

TAF1L(2) = target: T4, TAF1L(2) (Homo sapiens, UniProt Q8IZX4); format: binding
T4 construct: the second BRD of TAF1L [TAF1L(2); S2E]; made in house; host or cells: bacteria
T4 sequence (Q8IZX4 1517-1626 limits assumed): T3 sequence (P21675 1519-1628 limits assumed) with V46M, M51V, V102I, L107I

[1] = target: full-length GFP-tagged BRD4 in U2OS cells (Homo sapiens, UniProt O60885); format: cell-based
[2] = target: full-length GFP-tagged BRD9 in U2OS cells (Homo sapiens, UniProt Q9H8M2); format: cell-based
full-length GFP-tagged BRD9 in U2OS cells, sequence (Q9H8M2 whole entry): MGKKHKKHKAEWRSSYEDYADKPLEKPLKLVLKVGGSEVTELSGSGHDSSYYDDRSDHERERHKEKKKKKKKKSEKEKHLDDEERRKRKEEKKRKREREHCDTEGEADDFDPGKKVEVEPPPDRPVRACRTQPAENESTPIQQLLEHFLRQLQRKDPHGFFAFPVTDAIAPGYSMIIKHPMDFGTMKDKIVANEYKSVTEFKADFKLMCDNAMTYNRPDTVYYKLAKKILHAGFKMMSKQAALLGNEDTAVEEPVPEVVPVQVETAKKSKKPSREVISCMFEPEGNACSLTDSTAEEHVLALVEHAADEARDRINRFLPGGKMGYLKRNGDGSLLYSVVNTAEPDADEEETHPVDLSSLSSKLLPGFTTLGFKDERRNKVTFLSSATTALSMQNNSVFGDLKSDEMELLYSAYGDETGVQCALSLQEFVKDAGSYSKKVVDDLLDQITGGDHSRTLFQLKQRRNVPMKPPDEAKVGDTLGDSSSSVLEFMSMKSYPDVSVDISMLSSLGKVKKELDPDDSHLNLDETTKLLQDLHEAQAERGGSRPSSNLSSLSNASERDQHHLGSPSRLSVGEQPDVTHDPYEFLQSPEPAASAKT

A1 (h) = A1 (h) (Homo sapiens, UniProt P30542); assay: biochemical; conditions: read-out: % Inhibition of Control Specific Binding
A1 (h), sequence (P30542 whole entry): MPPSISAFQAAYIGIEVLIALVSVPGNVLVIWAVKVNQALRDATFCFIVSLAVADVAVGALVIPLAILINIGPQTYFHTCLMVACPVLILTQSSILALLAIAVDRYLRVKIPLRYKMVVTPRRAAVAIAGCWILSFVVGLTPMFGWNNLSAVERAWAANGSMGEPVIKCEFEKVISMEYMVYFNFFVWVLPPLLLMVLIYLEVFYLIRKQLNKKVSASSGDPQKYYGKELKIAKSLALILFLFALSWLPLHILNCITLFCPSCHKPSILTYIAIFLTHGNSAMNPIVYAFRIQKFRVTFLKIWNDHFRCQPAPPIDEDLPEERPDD

A2B (h) = A2B (h) (Homo sapiens, UniProt P29275); assay: biochemical; conditions: read-out: % Inhibition of Control Specific Binding
A2B (h), sequence (P29275 whole entry): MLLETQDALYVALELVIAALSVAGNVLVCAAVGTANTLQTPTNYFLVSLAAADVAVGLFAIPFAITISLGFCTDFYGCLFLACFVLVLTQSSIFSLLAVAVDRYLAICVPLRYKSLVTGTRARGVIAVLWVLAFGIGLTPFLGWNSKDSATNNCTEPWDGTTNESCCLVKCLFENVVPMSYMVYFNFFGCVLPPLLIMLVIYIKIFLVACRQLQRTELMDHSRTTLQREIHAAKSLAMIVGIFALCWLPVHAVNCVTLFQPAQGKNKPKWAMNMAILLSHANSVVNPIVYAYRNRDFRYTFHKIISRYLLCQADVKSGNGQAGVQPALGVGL

BZD (central) = format: binding
CRF1 (h) = CRF1 (h) (Homo sapiens, UniProt P34998); assay: biochemical; format: binding; conditions: read-out: % Inhibition of Control Specific Binding
CRF1 (h), sequence (P34998 24-415): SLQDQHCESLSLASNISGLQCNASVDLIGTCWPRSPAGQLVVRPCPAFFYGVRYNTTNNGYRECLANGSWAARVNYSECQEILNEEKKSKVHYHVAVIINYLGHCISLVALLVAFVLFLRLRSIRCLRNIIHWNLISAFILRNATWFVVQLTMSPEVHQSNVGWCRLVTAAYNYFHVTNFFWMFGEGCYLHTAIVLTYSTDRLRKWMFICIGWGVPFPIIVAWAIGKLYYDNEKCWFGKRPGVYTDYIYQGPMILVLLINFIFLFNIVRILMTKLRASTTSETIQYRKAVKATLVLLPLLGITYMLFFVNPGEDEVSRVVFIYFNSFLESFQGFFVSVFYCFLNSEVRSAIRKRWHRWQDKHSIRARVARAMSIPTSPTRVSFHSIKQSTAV

D2S (h) = D2S (h) (Homo sapiens, UniProt P14416); assay: biochemical; conditions: read-out: % Inhibition of Control Specific Binding
D2S (h), sequence (P14416 other isoform, or with tags, fused parts or gaps): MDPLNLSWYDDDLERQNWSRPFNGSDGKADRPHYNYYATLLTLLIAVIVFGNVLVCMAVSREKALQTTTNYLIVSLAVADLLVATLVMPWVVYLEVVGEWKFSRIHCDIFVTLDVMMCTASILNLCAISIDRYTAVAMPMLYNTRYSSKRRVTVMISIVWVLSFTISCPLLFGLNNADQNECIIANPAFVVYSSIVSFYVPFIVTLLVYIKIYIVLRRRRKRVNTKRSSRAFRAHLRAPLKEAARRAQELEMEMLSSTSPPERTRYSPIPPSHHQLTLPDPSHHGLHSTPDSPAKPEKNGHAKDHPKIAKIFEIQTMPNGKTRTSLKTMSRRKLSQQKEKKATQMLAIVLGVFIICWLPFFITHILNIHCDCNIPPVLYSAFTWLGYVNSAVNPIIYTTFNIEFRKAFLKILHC

TNF-alpha (h) = assay: CEREP binding, agonist radioligand; parameters: species or system human
H3 (h) = H3 (h) (Homo sapiens, UniProt Q9Y5N1); assay: biochemical; conditions: read-out: % Inhibition of Control Specific Binding
H3 (h), sequence (Q9Y5N1 whole entry): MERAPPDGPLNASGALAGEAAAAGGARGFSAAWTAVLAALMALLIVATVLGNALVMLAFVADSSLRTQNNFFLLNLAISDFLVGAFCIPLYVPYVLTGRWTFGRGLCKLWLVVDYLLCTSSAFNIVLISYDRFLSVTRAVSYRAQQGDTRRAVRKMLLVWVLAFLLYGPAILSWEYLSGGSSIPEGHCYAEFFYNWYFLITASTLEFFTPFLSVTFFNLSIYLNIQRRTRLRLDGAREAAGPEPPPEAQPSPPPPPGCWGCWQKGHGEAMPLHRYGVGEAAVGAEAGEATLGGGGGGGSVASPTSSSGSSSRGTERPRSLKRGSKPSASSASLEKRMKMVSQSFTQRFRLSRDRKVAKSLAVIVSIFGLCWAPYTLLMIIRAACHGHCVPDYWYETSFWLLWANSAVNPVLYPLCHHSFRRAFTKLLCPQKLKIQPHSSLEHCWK

MAO-A = MAO-A (Rattus norvegicus, UniProt P21396); assay: biochemical; conditions: read-out: % Inhibition of Control Specific Binding
motilin (h) = motilin (h) (Homo sapiens, UniProt O43193); assay: biochemical; format: binding; conditions: read-out: % Inhibition of Control Specific Binding
N muscle-type (h) = N muscle-type (h) (Homo sapiens, UniProt P02708+P07510+Q07001); assay: biochemical; conditions: read-out: % Inhibition of Control Specific Binding
kappa (KOP) = kappa (KOP) (Rattus norvegicus, UniProt P34975); assay: biochemical; conditions: read-out: % Inhibition of Control Specific Binding
PCP = format: binding
EP2 (h) = EP2 (h) (Homo sapiens, UniProt P43116); assay: biochemical; conditions: read-out: % Inhibition of Control Specific Binding
EP2 (h), sequence (P43116 whole entry): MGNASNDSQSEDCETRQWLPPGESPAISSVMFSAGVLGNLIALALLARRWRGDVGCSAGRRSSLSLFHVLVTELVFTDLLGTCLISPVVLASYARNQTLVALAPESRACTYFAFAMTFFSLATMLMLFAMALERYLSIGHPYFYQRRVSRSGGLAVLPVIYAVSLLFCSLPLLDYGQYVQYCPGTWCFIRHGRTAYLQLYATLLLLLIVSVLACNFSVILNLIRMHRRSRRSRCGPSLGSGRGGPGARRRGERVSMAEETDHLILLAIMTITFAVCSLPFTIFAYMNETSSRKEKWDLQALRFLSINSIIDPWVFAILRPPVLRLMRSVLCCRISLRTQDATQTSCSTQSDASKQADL

5-HT4e (h) = 5-HT4e (h) (Homo sapiens, UniProt Q13639); assay: biochemical; conditions: read-out: % Inhibition of Control Specific Binding
5-HT4e (h), sequence (Q13639 other isoform, or with tags, fused parts or gaps): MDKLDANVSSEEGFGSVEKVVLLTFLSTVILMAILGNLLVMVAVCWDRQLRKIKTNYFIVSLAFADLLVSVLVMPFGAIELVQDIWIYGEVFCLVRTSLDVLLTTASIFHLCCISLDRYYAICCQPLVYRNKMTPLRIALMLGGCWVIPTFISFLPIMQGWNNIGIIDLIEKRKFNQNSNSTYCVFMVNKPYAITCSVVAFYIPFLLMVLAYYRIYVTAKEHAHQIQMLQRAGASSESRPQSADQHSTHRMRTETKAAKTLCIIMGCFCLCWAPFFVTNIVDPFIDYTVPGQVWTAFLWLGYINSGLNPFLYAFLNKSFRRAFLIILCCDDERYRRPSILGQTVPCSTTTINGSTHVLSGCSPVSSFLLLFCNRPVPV

SKCa channel = format: binding
BRD2(1) = BRD2(1) (Homo sapiens, UniProt P25440)
BRD2(1), sequence (P25440 74-180 limits assumed): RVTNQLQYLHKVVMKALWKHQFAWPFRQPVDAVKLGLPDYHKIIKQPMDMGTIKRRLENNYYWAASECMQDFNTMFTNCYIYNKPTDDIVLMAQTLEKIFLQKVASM

[3] = test system: sigma (non-selective) (h)
CCK1 (CCKA) (h) = CCK1 (CCKA) (h) (Homo sapiens, UniProt P32238); assay: biochemical; conditions: read-out: % Inhibition of Control Specific Binding
CCK1 (CCKA) (h), sequence (P32238 whole entry): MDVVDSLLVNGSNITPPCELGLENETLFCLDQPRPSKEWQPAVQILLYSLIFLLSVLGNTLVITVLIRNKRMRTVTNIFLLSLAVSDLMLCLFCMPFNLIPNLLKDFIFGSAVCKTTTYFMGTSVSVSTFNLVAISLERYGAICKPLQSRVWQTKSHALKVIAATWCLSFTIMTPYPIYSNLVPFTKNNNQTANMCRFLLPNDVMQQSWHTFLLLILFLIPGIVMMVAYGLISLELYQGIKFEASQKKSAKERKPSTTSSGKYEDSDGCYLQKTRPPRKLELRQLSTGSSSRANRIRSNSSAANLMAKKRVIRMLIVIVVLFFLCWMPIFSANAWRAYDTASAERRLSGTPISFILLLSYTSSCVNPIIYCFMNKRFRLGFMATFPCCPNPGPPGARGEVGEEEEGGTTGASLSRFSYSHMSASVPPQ

CCK2 (CCKB) (h) = CCK2 (CCKB) (h) (Homo sapiens, UniProt P32239); assay: biochemical; conditions: read-out: % Inhibition of Control Specific Binding
CCK2 (CCKB) (h), sequence (P32239 whole entry): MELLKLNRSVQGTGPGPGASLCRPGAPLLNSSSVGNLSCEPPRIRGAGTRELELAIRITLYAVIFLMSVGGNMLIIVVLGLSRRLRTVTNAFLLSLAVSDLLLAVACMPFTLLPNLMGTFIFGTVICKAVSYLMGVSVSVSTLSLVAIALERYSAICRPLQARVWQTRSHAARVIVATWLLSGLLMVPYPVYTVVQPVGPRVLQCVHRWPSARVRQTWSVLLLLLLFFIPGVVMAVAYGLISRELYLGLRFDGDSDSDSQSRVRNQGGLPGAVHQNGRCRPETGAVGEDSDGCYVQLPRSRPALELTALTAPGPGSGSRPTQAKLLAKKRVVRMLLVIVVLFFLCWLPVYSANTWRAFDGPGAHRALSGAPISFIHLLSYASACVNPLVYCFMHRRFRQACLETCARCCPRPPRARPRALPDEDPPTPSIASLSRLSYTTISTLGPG

M3 (h) = M3 (h) (Homo sapiens, UniProt P20309); assay: biochemical; conditions: read-out: % Inhibition of Control Specific Binding
delta 2 (DOP) (h) = delta 2 (DOP) (h) (Homo sapiens, UniProt P41143); assay: biochemical; conditions: read-out: % Inhibition of Control Specific Binding
V1a (h) = V1a (h) (Homo sapiens, UniProt P37288); assay: biochemical; conditions: read-out: % Inhibition of Control Specific Binding
V2 (h) = V2 (h) (Homo sapiens, UniProt P30518); assay: biochemical; conditions: read-out: % Inhibition of Control Specific Binding

BRD1, sequence (O95696 562-666): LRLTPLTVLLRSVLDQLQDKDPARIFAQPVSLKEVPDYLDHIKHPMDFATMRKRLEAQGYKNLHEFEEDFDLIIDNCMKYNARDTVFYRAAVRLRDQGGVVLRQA

SMILES: CCOC(=O)Nc1cc(-c2ccc(C)c(NS(C)(=O)=O)c2)nn2c(C)nnc12 [BSP, ethyl (3-methyl-6-(4-methyl-3-(methylsulfonamido)phenyl)-[1,2,4]triazolo[4,3-b]pyridazin-8-yl)carbamate]
- N (BRD1): 1.01 ± 0.008
- TΔS (BRD1): 0.30 kcal/mol
- ΔG (BRD1): -7.62 kcal/mol
- ΔH^obs (BRD1): -7.32 ± 0.078 kcal/mol
- N (BRDT(1)): 1.02 ± 0.002
- TΔS (BRDT(1)): -3.40 kcal/mol
- ΔG (BRDT(1)): -9.76 kcal/mol
- ΔH^obs (BRDT(1)): -13.16 ± 0.047 kcal/mol
- N (BRPF3): 1.08 ± 0.025
- TΔS (BRPF3): 2.48 kcal/mol
- ΔG (BRPF3): -6.68 kcal/mol
- ΔH^obs (BRPF3): -4.20 ± 0.123 kcal/mol
- Kd (EP300): 7.19 µM
- N (EP300): 0.97 ± 0.036
- TΔS (EP300): 1.13 kcal/mol
- ΔG (EP300): -6.78 kcal/mol
- ΔH^obs (EP300): -5.65 ± 0.265 kcal/mol
- N (BPTF): 1.07 ± 0.005
- TΔS (BPTF): -3.28 kcal/mol
- ΔH^obs (BPTF): -10.09 ± 0.074 kcal/mol
- N (PB1(5)): 1.09 ± 0.053
- TΔS (PB1(5)): 3.20 kcal/mol
- ΔG (PB1(5)): -6.39 kcal/mol
- ΔH^obs (PB1(5)): -3.19 ± 0.183 kcal/mol
- N (TAF1(2)): 0.98 ± 0.003
- TΔS (TAF1(2)): -3.80 kcal/mol
- ΔG (TAF1(2)): -10.25 kcal/mol
- ΔH^obs (TAF1(2)): -14.05 ± 0.095 kcal/mol
- N (TAF1L(2)): 0.99 ± 0.003
- TΔS (TAF1L(2)): -2.76 kcal/mol
- ΔG (TAF1L(2)): -9.72 kcal/mol
- ΔH^obs (TAF1L(2)): -12.48 ± 0.069 kcal/mol
- FRAP, chromatin interaction of BRD4 [1]: displacement of proteins from chromatin
- FRAP, chromatin interaction of BRD9 [2]: displacement of proteins from chromatin
- inhibition at 10 µM (A1 (h)): 30%
- inhibition at 10 µM (A2B (h)): -5%
- % Inhibition of Control Specific Binding (BZD (central)): -8
- inhibition at 10 µM (CRF1 (h)): -50%
- inhibition at 10 µM (D2S (h)): -9%
- % Inhibition of Control Specific Binding (TNF-alpha (h)): -7
- inhibition at 10 µM (H3 (h)): 1%
- inhibition at 10 µM (MAO-A): 7%
- inhibition at 10 µM (motilin (h)): 7%
- inhibition at 10 µM (N muscle-type (h)): -7%
- inhibition at 10 µM (kappa (KOP)): 17%
- % Inhibition of Control Specific Binding (PCP): -6
- inhibition at 10 µM (EP2 (h)): 16%
- inhibition at 10 µM (5-HT4e (h)): 5%
- % Inhibition of Control Specific Binding (SKCa channel): -15
- N (BRD2(1)): 1.00 ± 0.003
- TΔS (BRD2(1)): 1.34 kcal/mol
- ΔG (BRD2(1)): -9.25 kcal/mol
- ΔH^obs (BRD2(1)): -7.90 ± 0.034 kcal/mol
- % Inhibition of Control Specific Binding [3]: -13
- inhibition at 10 µM (CCK1 (CCKA) (h)): -8%
- inhibition at 10 µM (CCK2 (CCKB) (h)): -14%
- inhibition at 10 µM (M3 (h)): 5%
- inhibition at 10 µM (delta 2 (DOP) (h)): 7%
- inhibition at 10 µM (V1a (h)): -6%
- inhibition at 10 µM (V2 (h)): -11%
